Measured values as given in patent US20150216992A1, “EXTENDED RELEASE COMPOSITIONS OF AN AMINOALKYL NITRATE” (CARDIOLYNX AG, priority 2012, published 2015).

What was measured:
L-NAME treated SHR rats = test: Rat model for pharmacological activity using blood pressure as a marker; type: in vivo; details: AEN tosylate 0.5 mg/kg/h infused, valsartan 5 mg/kg single daily dose; for effect on blood pressure: after 1 and 2 weeks
Protocol: FIG. 5: Pharmacological activity of AEN tosylate, valsartan and AEN tosylate/valsartan combination on blood pressure in L-NAME treated SHR rats.
Column 1: AEN tosylate (0.5 mg/kg/h), column 2: valsartan (single dose 5 mg/kg), column 3: AEN tosylate (0.5 mg/kg/h) plus valsartan (single daily dose 5 mg/kg).
Hatched bars: blood pressure lowering versus control after 1 week, black solid bars after 2 weeks. Vertical axis: reduction in blood pressure in mm Hg
SHR rats were treated with L-NAME to increase blood pressure. Following treatment with L-NAME rats were treated continuously for two weeks with either AEN tosylate (1) with a continuously infused dose (using an osmotic pump) of 0.5 mg/kg/h (column 1 in FIG. 5), valsartan at 5 mg/kg, single daily dose (column 2 in FIG. 5) or AEN tosylate plus valsartan (combined doses, group 3 in FIG. 5). Effects on blood pressure were measured after 1 week and after 2 weeks of treatment.

[1] = in vivo; cited from earlier work
[2] = in vivo; cited from earlier work; remark: listed apart in the source

| Structure (SMILES) | effect on blood pressure (L-NAME treated SHR rats) | NO-tolerance induction (L-NAME treated SHR rats; two weeks continuous treatment) | development of nitrate tolerance [1] | half-live [2] |
| --- | --- | --- | --- | --- |
| Cc1ccc(S(=O)(=O)O)cc1.NCCO[N+](=O)[O-] [AEN tosylate, 2-aminoethylnitrate (aen) tosylate] | continued pharmacological activity | without showing signs of NO-tolerance induction | – | – |
| NCCO[N+](=O)[O-] [AEN, 2-aminoethyl nitrate] | – | – | no development of nitrate tolerance | approx. 2 hours |
| CCCCC(=O)N(Cc1ccc(-c2ccccc2-c2nnn[nH]2)cc1)[C@H](C(=O)O)C(C)C [valsartan] | lowered blood pressure | – | – | – |
